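Each compound was tested at five concentrations against cells in 96-well plates for 48 hours. Abbreviation: GI50, concentration required for 50% inhibition of growth.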 Calls of active or inactive are those of the source. Cut-off read from the data, not from the text of the source: active = GI50 up to about 1.1 µM and inactive = higher. Where a SMILES comes first, the peptide text is derived from it. [ ]: non-standard residue; d: D form. The star is where a group is joined. Cbz = O=C(OCc1ccccc1)*; Aib = CC(C)(N)C(=O)O; OBn = c1ccc(CO*)cc1
How the values were obtained:
Assay in all cases: NCI tumour cell line growth inhibition, 48 h
RPMI-8226 = system: RPMI-8226
TK-10 = system: TK-10
SR = system: SR
CAKI-1 = system: CAKI-1
M14 = system: M14
SW-620 = system: SW-620
OVCAR-3 = system: OVCAR-3
KM12 = system: KM12
NCI-H23 = system: NCI-H23
HCT-15 = system: HCT-15
NCI-H226 = system: NCI-H226
NCI/ADR-RES = system: NCI/ADR-RES
CCRF-CEM = system: CCRF-CEM
A498 = system: A498
HT-29 = system: HT-29
NCI-H460 = system: NCI-H460
OVCAR-5 = system: OVCAR-5
OVCAR-4 = system: OVCAR-4

Compound | GI50 (RPMI-8226) | GI50 (TK-10) | GI50 (SR) | GI50 (CAKI-1) | GI50 (M14) | GI50 (SW-620) | GI50 (OVCAR-3) | GI50 (KM12) | GI50 (NCI-H23) | GI50 (HCT-15) [µM] | GI50 (NCI-H226) | GI50 (NCI/ADR-RES) | GI50 (CCRF-CEM) | GI50 (A498) | GI50 (HT-29) | GI50 (NCI-H460) | GI50 (OVCAR-5) | GI50 (OVCAR-4)
CC(=O)Nc1cccc(N2C(=O)/C(=C\c3cccc(Oc4ccccc4)c3)S(=O)(=O)C2c2ccccc2)c1 (stereo unspecified) | 61.5 µM (inactive) | > 100 µM (inactive) | 15.9 µM (inactive) | 53.5 µM (inactive) | 90.6 µM (inactive) | 37.8 µM (inactive) | 45.4 µM (inactive) | 68.5 µM (inactive) | 97.7 µM (inactive) | > 100 | > 100 µM (inactive) | 55.5 µM (inactive) | 57.8 µM (inactive) | > 100 µM (inactive) | 64.9 µM (inactive) | > 100 µM (inactive) | > 100 µM (inactive) | 25.2 µM (inactive)
CCCCOC(=O)NC(c1ccccc1)C(O)C(=O)OC1C[C@@]2(O)C(OC(=O)c3ccccc3)C3[C@](C)(C(=O)[C@H](OC(C)=O)C(=C1C)C2(C)C)[C@@H](O)C[C@H]1OC[C@@]31OC(C)=O (stereo partly specified) | 0.00377 µM (active) | 0.101 µM (active) | 0.00499 µM (active) | – | 0.0102 µM (active) | 0.00627 µM (active) | 0.00906 µM (active) | 0.0031 µM (active) | 0.0139 µM (active) | 0.145 | – | 2 µM (inactive) | 0.00425 µM (active) | 0.0056 µM (active) | 0.00228 µM (active) | 0.002 µM (active) | 0.015 µM (active) | 2.92 µM (inactive)
COc1c(C)c(OC)c(C(=O)CC(C)C)c(OC)c1C | 20.3 µM (inactive) | > 100 µM (inactive) | 21.4 µM (inactive) | > 100 µM (inactive) | > 100 µM (inactive) | > 100 µM (inactive) | > 100 µM (inactive) | 74 µM (inactive) | 83 µM (inactive) | 37.1 | > 100 µM (inactive) | 52.6 µM (inactive) | > 100 µM (inactive) | > 100 µM (inactive) | 63.4 µM (inactive) | – | > 100 µM (inactive) | 23.6 µM (inactive)
CCOC(CBr)OC1C(=O)OCC1(C)C (stereo unspecified) | > 100 µM (inactive) | > 100 µM (inactive) | > 100 µM (inactive) | > 100 µM (inactive) | > 100 µM (inactive) | > 100 µM (inactive) | – | > 100 µM (inactive) | > 100 µM (inactive) | > 100 | > 100 µM (inactive) | > 100 µM (inactive) | > 100 µM (inactive) | > 100 µM (inactive) | > 100 µM (inactive) | > 100 µM (inactive) | > 100 µM (inactive) | > 100 µM (inactive)
CCOC(=O)NC(Nc1c(F)c(F)c(F)c(F)c1F)(C(F)(F)F)C(F)(F)F | > 100 µM (inactive) | > 100 µM (inactive) | > 100 µM (inactive) | > 100 µM (inactive) | > 100 µM (inactive) | > 100 µM (inactive) | > 100 µM (inactive) | > 100 µM (inactive) | > 100 µM (inactive) | > 100 | > 100 µM (inactive) | > 100 µM (inactive) | > 100 µM (inactive) | > 100 µM (inactive) | – | > 100 µM (inactive) | > 100 µM (inactive) | –
Cc1ccc2nc(-c3ccc(N)c(Br)c3)sc2c1 | – | – | 11 µM (inactive) | 34.8 µM (inactive) | 26.7 µM (inactive) | – | 10.1 µM (inactive) | 7.41 µM (inactive) | 22.2 µM (inactive) | 7.01 | 17.5 µM (inactive) | 52.1 µM (inactive) | 3.37 µM (inactive) | > 100 µM (inactive) | 40.7 µM (inactive) | 5.6 µM (inactive) | 47.3 µM (inactive) | 33.5 µM (inactive)
CC1=Nc2sc3c(c2C2=NCCN12)CCCC3 | 19.8 µM (inactive) | 36.8 µM (inactive) | 23.2 µM (inactive) | 22.9 µM (inactive) | – | 25.4 µM (inactive) | 28.2 µM (inactive) | 16.8 µM (inactive) | 18.7 µM (inactive) | 29.9 | 15.1 µM (inactive) | 14.8 µM (inactive) | – | 39.9 µM (inactive) | 18.6 µM (inactive) | 19.7 µM (inactive) | 30.7 µM (inactive) | 42.4 µM (inactive)
CC(=O)O[C@H]1C(=O)[C@@]2(C)[C@H]([C@H](OC(=O)c3ccc([N+](=O)[O-])cc3)[C@]3(O)C[C@H](OC(=O)[C@H](O)[C@@H](NC(=O)c4ccccc4)c4ccccc4)C(C)=C1C3(C)C)[C@]1(OC(C)=O)CO[C@@H]1C[C@@H]2O | > 25 µM (inactive) | > 25 µM (inactive) | > 25 µM (inactive) | > 25 µM (inactive) | > 25 µM (inactive) | > 25 µM (inactive) | – | > 25 µM (inactive) | > 25 µM (inactive) | > 25 | > 25 µM (inactive) | > 25 µM (inactive) | > 25 µM (inactive) | > 25 µM (inactive) | > 25 µM (inactive) | > 25 µM (inactive) | > 25 µM (inactive) | > 25 µM (inactive)
Cc1ccc([Se](=C(C(=O)c2ccccc2)C(=O)c2ccccc2)c2ccc(C)cc2)cc1 | 4.14 µM (inactive) | 23.4 µM (inactive) | 12.7 µM (inactive) | 19.5 µM (inactive) | 33.6 µM (inactive) | 29.5 µM (inactive) | 20.6 µM (inactive) | 18.9 µM (inactive) | 18.8 µM (inactive) | 16.9 | 20.2 µM (inactive) | 34.3 µM (inactive) | – | 14.8 µM (inactive) | 18.7 µM (inactive) | 25.5 µM (inactive) | 38.8 µM (inactive) | 16.4 µM (inactive)
C=CCC1C(=O)Nc2cccc3ncn(c23)C1=O (stereo unspecified) | > 100 µM (inactive) | – | > 100 µM (inactive) | > 100 µM (inactive) | > 100 µM (inactive) | > 100 µM (inactive) | > 100 µM (inactive) | 48.9 µM (inactive) | > 100 µM (inactive) | > 100 | > 100 µM (inactive) | > 100 µM (inactive) | > 100 µM (inactive) | > 100 µM (inactive) | > 100 µM (inactive) | > 100 µM (inactive) | > 100 µM (inactive) | > 100 µM (inactive)
CC(NC(=O)C(C)(C)NC(=O)C(CC(=O)OCc1ccccc1)NC(=O)OCc1ccccc1)C(N)=O (stereo unspecified) (Cbz-Asp(OBn)-[Aib]-Ala-NH2; configuration not given here) | > 100 µM (inactive) | > 100 µM (inactive) | > 100 µM (inactive) | > 100 µM (inactive) | > 100 µM (inactive) | > 100 µM (inactive) | > 100 µM (inactive) | > 100 µM (inactive) | > 100 µM (inactive) | > 100 | > 100 µM (inactive) | > 100 µM (inactive) | > 100 µM (inactive) | – | > 100 µM (inactive) | > 100 µM (inactive) | > 100 µM (inactive) | > 100 µM (inactive)
O=C(Cn1c(C(=O)/C=C/c2cccs2)nc2ccccc21)c1ccc(Cl)cc1 | 8.05 µM (inactive) | 27 µM (inactive) | 3.09 µM (inactive) | – | 18.6 µM (inactive) | 25.6 µM (inactive) | 15.5 µM (inactive) | 11.1 µM (inactive) | 14.7 µM (inactive) | 21.5 | 53.8 µM (inactive) | 14 µM (inactive) | – | 19.9 µM (inactive) | 19.7 µM (inactive) | 10.5 µM (inactive) | > 100 µM (inactive) | 14.6 µM (inactive)
CCN1C[C@]2(C)CC[C@H](OCc3ccccc3)C34C5C[C@@H]6CC[C@](O)(C(C[C@@H]32)C14)C5[C@H]6OCc1ccccc1 (stereo partly specified) | 31 µM (inactive) | 45.8 µM (inactive) | 54.8 µM (inactive) | – | 46.9 µM (inactive) | > 100 µM (inactive) | 35.6 µM (inactive) | 38.5 µM (inactive) | > 100 µM (inactive) | > 100 | > 100 µM (inactive) | > 100 µM (inactive) | 56.5 µM (inactive) | > 100 µM (inactive) | 55.2 µM (inactive) | 31.2 µM (inactive) | > 100 µM (inactive) | 85.1 µM (inactive)
CCOc1cc2c(cc1O)C(N)C[C@@H]1[C@@H]2CC[C@]2(C)[C@@H](O)CC[C@@H]12 (stereo partly specified) | – | 83 µM (inactive) | 15.2 µM (inactive) | 32.9 µM (inactive) | 26.9 µM (inactive) | 34 µM (inactive) | – | 43.7 µM (inactive) | 49.5 µM (inactive) | 45.7 | 92.7 µM (inactive) | > 100 µM (inactive) | 22.6 µM (inactive) | 34.8 µM (inactive) | 42.7 µM (inactive) | 37.6 µM (inactive) | > 100 µM (inactive) | 30.8 µM (inactive)
CC(C)(C)OC(=O)NC(Cc1ccc(OCc2ccccc2)cn1)C(=O)O (stereo unspecified) | > 100 µM (inactive) | > 100 µM (inactive) | > 100 µM (inactive) | > 100 µM (inactive) | – | > 100 µM (inactive) | > 100 µM (inactive) | > 100 µM (inactive) | > 100 µM (inactive) | > 100 | > 100 µM (inactive) | > 100 µM (inactive) | > 10 µM (inactive) | > 100 µM (inactive) | > 100 µM (inactive) | > 100 µM (inactive) | > 100 µM (inactive) | > 100 µM (inactive)
N#[N+]c1cc2c(cc1Br)-c1ccccc1C2 | – | 47.1 µM (inactive) | 0.413 µM (active) | 97.5 µM (inactive) | > 100 µM (inactive) | > 100 µM (inactive) | 46.9 µM (inactive) | > 100 µM (inactive) | > 100 µM (inactive) | > 100 | 51.6 µM (inactive) | > 100 µM (inactive) | 0.586 µM (active) | > 100 µM (inactive) | > 100 µM (inactive) | > 100 µM (inactive) | > 100 µM (inactive) | > 100 µM (inactive)
